Data taken from patent US20210255184A1, “Biosensor Device and Methods” (The New Zealand Institute for Plant and Food Research …, priority 2018, published 2021).

Target: T1, Or10a (Drosophila melanogaster, UniProt Q9VYZ1)
T1 construct: his-tag; made in house; host or cells: baculovirus-infected Sf9 cells
T1 sequence (Q9VYZ1 1-406): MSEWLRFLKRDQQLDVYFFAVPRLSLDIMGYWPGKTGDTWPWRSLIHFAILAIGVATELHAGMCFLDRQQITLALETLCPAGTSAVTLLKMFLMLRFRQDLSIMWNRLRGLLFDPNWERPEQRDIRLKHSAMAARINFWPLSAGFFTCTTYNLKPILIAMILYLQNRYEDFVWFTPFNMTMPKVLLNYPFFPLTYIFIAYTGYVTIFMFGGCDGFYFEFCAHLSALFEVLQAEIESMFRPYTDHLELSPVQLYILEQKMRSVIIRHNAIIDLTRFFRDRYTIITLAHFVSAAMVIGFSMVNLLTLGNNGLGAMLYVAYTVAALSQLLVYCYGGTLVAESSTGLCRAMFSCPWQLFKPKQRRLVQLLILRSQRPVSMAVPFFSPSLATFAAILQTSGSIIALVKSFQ
Assay: EIS sensor, Or10a liposomes on gold electrode
Format: biochemical
Description: Prior to their use, liposomes were defrosted on ice and then destabilized by incubating with 0.2% CHAPS for 15 min at room temperature. Then 200 μg of purified odorant receptor^28 was added to 1 mg of liposomes and rotated at 10 rpm for 1 h at room temperature. Excess detergent was removed by four additions of 25 mg of Bio-Beads SM-2 (Bio-Rad, USA) and incubation at 4° C. for 30 min, 2 h, overnight and a further 2 h respectively. The Bio-Beads were removed after each incubation period. The OrX or OrX/Orco integrated liposomes were pelleted by centrifugation at 100,000 g for 1 h, and were resuspended in 500 μL of rehydration buffer. Integration of OrXs and Orco into liposomes was assessed by density gradient ultracentrifugation (DGU) using Accudenz (Accurate Chemical & Scientific Corporation, USA). The integrated liposomes were brought to 40% Accudenz by the addition of an equal volume of 80% Accudenz solution, placed at the bottom of an ultra-centrifugation tube, and overlaid with 30% Accudenz solution, and DGU buffer (25 mM HEPES pH 7.5, 100 mM NaCl, 10% glycerol). The sample was then centrifuged at 100,000 g for 4 h at 4° C. Liposomes will float to the top of the gradient after Accudenz DGU due to their low density.
2 mM MHA was prepared by dissolving 1.36 μl of MHA in 5 ml ethanol (AR grade). The cleaned electrodes were immersed into MHA solution and incubated overnight. The next day, all the electrodes were washed with ethanol and deionised water thoroughly in order to remove the unreacted acid. A 2:1 mol:mol ratio of EDC:NHS (100 mM EDC, 50 mM NHS) was prepared in 2 ml PBS (pH=6.5) solution. Then, the electrodes were covered in 100 μl of this solution at 28° C. for an hour to activate the carboxylic (COOH) groups of the MHA.
PBS solution was prepared by immersing one tablet of PBS in 200 ml of milli-Q water (according to manufacturers instructions) and filtered using 0.2-μm syringe filter. The pH of the prepared buffer solution was measured with a pH meter. OrX liposomes or OrX/Orco liposomes were diluted 100 fold in PBS buffer solution (pH=7.4) and the COOH-activated electrodes were incubated in that buffer solution at room temperature for one hour. Then, the electrodes were washed extensively with PBS buffer solution to wash out any unbound liposomes.
PBS (pH=7.4) was used as an electrolyte to conduct electrochemical measurements. PBS buffer was degassed for about 30 minutes prior to electrochemical measurements. Odorant solutions of concentration ranging from 1 aM to 1 μM were prepared by sequential dilution in PBS solution containing 1% DMSO. OR immobilized electrodes were incubated in relevant odorant solution for ˜30 minutes each and washed gently with PBS before EIS measurements.
EIS measurements were done in a 3 electrode cell containing Ag/AgCl (3 M NaCl, 0.209 V vs. SHE) reference electrode, coiled platinum wire as a counter electrode and the gold disk as a working electrode at a fixed voltage of −0.7 using PalmSens potentiostat. Degassed PBS was used as an electrolyte.
EIS measurements were performed on gold electrodes functionalised with OrX liposomes (either Or10a or Or22a), OrX/Orco liposomes, or empty liposomes prior to and after target ligand or control ligand incubation with increasing concentrations (1 aM to 100 μM). Dose response curves were obtained by defining sensor response as −(ΔRp/R^op) versus log[C(Ligand)]. FIG. 4a presents the EIS response in terms of Nyquist plot for the Or10a liposome functionalized sensors when exposed to a solution containing one of the known target ligands of Or10a, methyl salicylate, at various concentrations. […] The dose response curve (FIG. 4b) was obtained by plotting the change in polarization resistance −(ΔRp/R^op) versus log[conc(Ligand)], as the sensor response. Here, Rp is the polarization resistance after Or10a liposome-target interaction and R^op is the polarization resistance before Or10a liposome-target interaction.

Structure (SMILES)	sensor response to control ligand (EIS dose response)	limit of detection (LOD) (EIS dose response, ligand 1 aM to 100 μM) [pM]	EC50 (Table 1, approximate) [nM]	Sensitivity limit (Table 1, * estimated visually from dose response graph)	Detection Range (Table 3)	EC50 (Table 3, fitted dose response) [nM]
CCCCCC(=O)OC [methyl hexanoate]	negligible response					
COC(=O)c1ccccc1O [methyl salicylate]		0.1	~0.1	~10^−10 M*	10^−13 to 10^−7 M	0.0022
